Test results taken from US3976663A, “Certain cyclopropane carboxylic acid esters of 2,3-dihyrobenzofuran-3-ols” (The Procter & Gamble Company, priority 1971, dated 1976).
Like-named read-outs stand apart in the source and are kept apart here.

Key:
houseflies [1] = experiment: Housefly mortality tests, spray tower (Example IV); assay type: in vivo; details: for % Mortality (24 hr.): 10 second spray; for housefly mortality compared with the chrysanthemates of Table 1: equivalent amount in the test of Example IV
Protocol: (§1) 3-Coumaranyl chrysanthemate, 5-chloro-3-coumaranyl chrysanthemate, 5-methoxy-3-coumaranyl chrysanthemate, and natural pyrethrum, respectively, were dissolved in acetone and dispersed in distilled water with Triton X-100 emulsifier. The samples were applied for a 10 second period to houseflies retained in a 2 inch × 5 inch diameter screened cage. The spray is applied from the Water's vertical spray tower operating at 10 p.s.i. and discharging about 30 ml. of material per minute through an atomizer. The spray descends through an 8 inch stainless steel cylinder to test insects below the atomizer. The insects were retained in the sprayed cages for mortality observations.

houseflies [2] = experiment: Residual activity against houseflies on treated panels (Example V); assay type: in vivo; details: 100 milligrams per square foot, one hour exposure
Description: (§2) 3-Coumaranyl chrysanthemate and natural pyrethrum, respectively, were formulated in deodorized kerosene to give a deposit rate of 100 milligrams per square foot of area for residual evaluation against houseflies and 200 and 400 milligrams per square foot of area for residual evaluation against German cockroaches. The formulations were uniformly applied at the rate of 8 milliliters/sq.ft. on unpainted plywood and 3.5 milliliters/sq.ft. on vinyl asbestos with a camel hair brush. Adult insects were exposed to each treated panel for one hour (houseflies) or two hours (cockroaches), transferred to clean cages, and held for mortality counts. The same treated panels were used for re-exposures after the aging period indicated.

German cockroaches = experiment: Residual activity against cockroaches on treated panels (Example V); assay type: in vivo; details: Blattella germanica, 48 h
Description: as §2

Adult mosquito = experiment: Insect mortality test, spray tower (Example VI); assay type: in vivo; details: 0.05 + 0.2 synergist (piperonyl butoxide) % W/V, 1 day
Protocol: as §1
(§3) All test species except the webbing clothes moth larvae were sprayed in the Water's vertical spray tower as described in Example IV. For the fabric tests, a two inch square area of wool fabric was dipped in the test formulations.

Adult rice weevils = experiment: Insect mortality test, spray tower (Example VI); assay type: in vivo; details: 0.05 + 0.2 synergist (piperonyl butoxide) % W/V, 3 days
Protocol: as §1, §3

[3] = system: Adult saw toothed grain beetles; experiment: Insect mortality test, spray tower (Example VI); assay type: in vivo; details: 0.05 + 0.2 synergist (piperonyl butoxide) % W/V, 3 days
Protocol: as §1, §3

Adult stable flies = experiment: Insect mortality test, spray tower (Example VI); assay type: in vivo; details: 0.05 + 0.2 synergist (piperonyl butoxide) % W/V, 1 day
Protocol: as §1, §3

[4] = system: Black carpet beetle larvae; experiment: Insect mortality test, spray tower (Example VI); assay type: in vivo; details: 0.05 + 0.2 synergist (piperonyl butoxide) % W/V, 7 days
Protocol: as §1, §3

German Cockroach = experiment: Insect mortality test, spray tower (Example VI); assay type: in vivo; details: 0.05 + 0.2 synergist (piperonyl butoxide) % W/V, 2 days
Protocol: as §1, §3

Mexican Bean Beetle = experiment: Insect mortality test, spray tower (Example VI); assay type: in vivo; details: 0.005 + 0.02 synergist (piperonyl butoxide) % W/V, 2 days
Protocol: as §1, §3

Mite = experiment: Insect mortality test, spray tower (Example VI); assay type: in vivo; details: 0.05 + 0.2 synergist (piperonyl butoxide) % W/V, 5 days
Protocol: as §1, §3

Pea Aphid = experiment: Insect mortality test, spray tower (Example VI); assay type: in vivo; details: 0.005 + 0.02 synergist (piperonyl butoxide) % W/V, 2 days
Protocol: as §1, §3

Southern Armyworm = experiment: Insect mortality test, spray tower (Example VI); assay type: in vivo; details: 0.05 + 0.2 synergist (piperonyl butoxide) % W/V, 2 days
Protocol: as §1, §3

[5] = system: Webbing clothes moth larvae; experiment: Insect mortality test, wool fabric dipped in test formulation (Example VI); assay type: in vivo; details: 0.05 + 0.2 synergist (piperonyl butoxide) % W/V, 7 days
Description: as §3

11 other insects = experiment: Insect mortality tests, Example VI as a whole; assay type: in vivo
Protocol: as §1, §3

[6] = Mammalian toxicity, LD50 (rat); details: in vivo
[7] = 0.0025 + 0.025 PB (piperonyl butoxide) % W/V
[8] = Musca domestica, topical, 24 h, read-out: % Mortality (24 hr.)
[9] = 0.005 + 0.05 PB (piperonyl butoxide) % W/V

For `CC(C)=CC1C(C(=O)OC2COc3ccccc32)C1(C)C` (racemic) [Example I, (±) cis,trans-3-coumaranyl chrysanthemate], the “% Mortality (24 hr.)” value (houseflies [1]; 0.00125 + 0.0125 PB (piperonyl butoxide) % W/V) was 28%, the “% Mortality (24 hr.)” value (houseflies [1]; [7]) was 93% and the mortality at 0.00125 % strength (houseflies [1]; [8]) was 5%. For the same compound, the mortality at 0.0025 % strength (houseflies [1]; [8]) was 6%, the “% Mortality (24 hr.)” value (houseflies [2]; Plywood, age of residue 1 day) was 100% and the “% Mortality (24 hr.)” value (houseflies [2]; Plywood, age of residue 3 days) was 98%. For the same compound, the “% Mortality (24 hr.)” value (houseflies [2]; Plywood, age of residue 7 days) was 83%, the “% Mortality (24 hr.)” value (houseflies [2]; Vinyl, age of residue 1 day) was 100% and the “% Mortality (24 hr.)” value (houseflies [2]; Vinyl, age of residue 3 days) was 100%. The “% Mortality (24 hr.)” value (houseflies [2]; Vinyl, age of residue 7 days) was 59%, the mortality at 200 mg/sq ft (German cockroaches; read-out: % Mortality (48 hrs.), Plywood, 200 milligrams per sq. ft., age of residue 1 day, two hours exposure) was 85% and the mortality at 200 mg/sq ft (German cockroaches; read-out: % Mortality (48 hrs.), Plywood, 200 milligrams per sq. ft., age of residue 3 days, two hours exposure) was 83%. For the same compound, the mortality at 200 mg/sq ft (German cockroaches; read-out: % Mortality (48 hrs.), Plywood, 200 milligrams per sq. ft., age of residue 7 days, two hours exposure) was 93%, the mortality at 200 mg/sq ft (German cockroaches; read-out: % Mortality (48 hrs.), Plywood, 200 milligrams per sq. ft., age of residue 14 days, two hours exposure) was 85% and the mortality at 400 mg/sq ft (German cockroaches; read-out: % Mortality (48 hrs.), Plywood, 400 milligrams per sq. ft., age of residue 1 day, two hours exposure) was 83%. For the same compound, the mortality at 400 mg/sq ft (German cockroaches; read-out: % Mortality (48 hrs.), Plywood, 400 milligrams per sq. ft., age of residue 3 days, two hours exposure) was 83%, the mortality at 400 mg/sq ft (German cockroaches; read-out: % Mortality (48 hrs.), Plywood, 400 milligrams per sq. ft., age of residue 7 days, two hours exposure) was 90% and the mortality at 400 mg/sq ft (German cockroaches; read-out: % Mortality (48 hrs.), Plywood, 400 milligrams per sq. ft., age of residue 14 days, two hours exposure) was 73%. It also gave a mortality at 200 mg/sq ft (German cockroaches; read-out: % Mortality (48 hrs.), Vinyl, 200 milligrams per sq. ft., age of residue 1 day, two hours exposure) of 100%, a mortality at 200 mg/sq ft (German cockroaches; read-out: % Mortality (48 hrs.), Vinyl, 200 milligrams per sq. ft., age of residue 3 days, two hours exposure) of 95% and a mortality at 200 mg/sq ft (German cockroaches; read-out: % Mortality (48 hrs.), Vinyl, 200 milligrams per sq. ft., age of residue 7 days, two hours exposure) of 70%. For the same compound, the mortality at 200 mg/sq ft (German cockroaches; read-out: % Mortality (48 hrs.), Vinyl, 200 milligrams per sq. ft., age of residue 14 days, two hours exposure) was 20%, the mortality at 400 mg/sq ft (German cockroaches; read-out: % Mortality (48 hrs.), Vinyl, 400 milligrams per sq. ft., age of residue 1 day, two hours exposure) was 100% and the mortality at 400 mg/sq ft (German cockroaches; read-out: % Mortality (48 hrs.), Vinyl, 400 milligrams per sq. ft., age of residue 3 days, two hours exposure) was 100%. The mortality at 400 mg/sq ft (German cockroaches; read-out: % Mortality (48 hrs.), Vinyl, 400 milligrams per sq. ft., age of residue 7 days, two hours exposure) was 100%, the mortality at 400 mg/sq ft (German cockroaches; read-out: % Mortality (48 hrs.), Vinyl, 400 milligrams per sq. ft., age of residue 14 days, two hours exposure) was 83% and the “% Mortality (days)” value (Adult mosquito) was 100%. For the same compound, the “% Mortality (days)” value (Adult rice weevils) was 100%, the “% Mortality (days)” value [3] was 100% and the “% Mortality (days)” value (Adult stable flies) was 100%. The “% Mortality (days)” value [4] was 40%, the “% Mortality (days)” value (German Cockroach) was 30% and the “% Mortality (days)” value (Mexican Bean Beetle) was 80%. The “% Mortality (days)” value (Mite) was 69%, the “% Mortality (days)” value (Pea Aphid) was 65% and the “% Mortality (days)” value (Southern Armyworm) was 70%. The “% Mortality (days)” value [5] was 100%, the “effectiveness against 11 other insects” value (11 other insects) was “effective” and the LD50 [6] was greater than 7570 mg/kg.

With `CC(C)=CC1C(C(=O)OC2COc3ccc(Cl)cc32)C1(C)C` (racemic) [Example II, (±) cis,trans-5-chloro-3-coumaranyl chrysanthemate] the “% Mortality (24 hr.)” value (houseflies [1]; [7]) was 56%, the “% Mortality (24 hr.)” value (houseflies [1]; [9]) was 99% and the mortality at 0.005 % strength (houseflies [1]; [8]) was 5%.

With `COc1ccc2c(c1)C(OC(=O)C1C(C=C(C)C)C1(C)C)CO2` (racemic) [Example III, (±) cis, trans-5-methoxy-3-coumaranyl chrysanthemate] the “% Mortality (24 hr.)” value (houseflies [1]; [9]) was 57%, the “% Mortality (24 hr.)” value (houseflies [1]; 0.01 + 0.1 PB (piperonyl butoxide) % W/V) was 100% and the mortality at 0.01 % strength (houseflies [1]; [8]) was 0%.

For `CC1(C)C(C(=O)OC2COc3ccccc32)C1(C)C` (stereo not drawn) [3-coumaranyl 2,2,3,3-tetramethylcyclopropanecarboxylate], the “housefly mortality compared with the chrysanthemates of Table 1” value (houseflies [1]) was “equivalent results”.

With `CC1(C)C(C=C2CCCC2)C1C(=O)OC1COc2ccccc21` (stereo not drawn) [3-coumaranyl 3-(2,2-tetramethyleneethenyl)-2-dimethylcyclopropanecarboxylate] the “housefly mortality compared with the chrysanthemates of Table 1” value (houseflies [1]) was “equivalent results”.

With `CC1(C)C(C(=O)OC2COc3ccc(Cl)cc32)C1(C)C` (stereo not drawn) [5-chloro-3-coumaranyl 2,2,3,3-tetramethylcyclopropanecarboxylate] the “housefly mortality compared with the chrysanthemates of Table 1” value (houseflies [1]) was “equivalent results”.

For `CC1(C)C(C=C2CCCC2)C1C(=O)OC1COc2ccc(Cl)cc21` (stereo not drawn) [5-chloro-3-coumaranyl 3-(2,2-tetramethyleneethenyl)-2,2-dimethylcyclopropanecarboxylate], the “housefly mortality compared with the chrysanthemates of Table 1” value (houseflies [1]) was “equivalent results”.

For `COc1ccc2c(c1)C(OC(=O)C1C(C)(C)C1(C)C)CO2` (stereo not drawn) [5-methoxy-3-coumaranyl 2,2,3,3-tetramethylcyclopropanecarboxylate], the “housefly mortality compared with the chrysanthemates of Table 1” value (houseflies [1]) was “equivalent results”.

With `COc1ccc2c(c1)C(OC(=O)C1C(C=C3CCCC3)C1(C)C)CO2` (stereo not drawn) [5-methoxy-3-coumaranyl 3-(2,2-tetramethyleneethenyl)-2,2-dimethylcyclopropanecarboxylate] the “housefly mortality compared with the chrysanthemates of Table 1” value (houseflies [1]) was “equivalent results”.

In the case of `CC1(C)C(C(=O)OC2COc3ccc([N+](=O)[O-])cc32)C1(C)C` (stereo not drawn) [5-nitro-3-coumaranyl 2,2,3,3-tetramethylcyclopropanecarboxylate], the “housefly mortality compared with the chrysanthemates of Table 1” value (houseflies [1]) is reported as “equivalent results”.

In the case of `CC1(C)C(C=C2CCCC2)C1C(=O)OC1COc2ccc([N+](=O)[O-])cc21` (stereo not drawn) [5-nitro-3-coumaranyl 3-(2,2-tetramethyleneethenyl)-2-dimethylcyclopropanecarboxylate], the “housefly mortality compared with the chrysanthemates of Table 1” value (houseflies [1]) is reported as “equivalent results”.

For `CC(C)=CC1C(C(=O)OC2COc3ccc([N+](=O)[O-])cc32)C1(C)C` (stereo not drawn) [5-nitro-3-coumaranyl chrysanthemate], the “housefly mortality compared with the chrysanthemates of Table 1” value (houseflies [1]) was “equivalent results”.
